This passage reports Potency ratio and Relative potency results from ChEMBL document CHEMBL1122928, “Stereostructure-activity relationship of opioid agonist and antagonist bivalent ligands. Evidence for bridging between vicinal opioid receptors” (J Med Chem, 1985).

Each structure is given as a SMILES string.

Assay [1] addresses T1, Opioid receptors; mu/kappa/delta (Homo sapiens) (UniProt P41145+P41143+P35372). The experiment in a line: In vitro agonist activity towards opioid receptor on the electrically stimulated Guinea pig ileal longitudinal muscle (GPI); morphine IC50/ agonist IC50 in the same tissue. The format is functional. The following applies: Cavia porcellus; target entry is the homologue from another species.

Assay [2] addresses T1, Opioid receptors; mu/kappa/delta (Homo sapiens). In words: The relative potency was evaluated with respect to morphine. Particulars: Cavia porcellus.

T1 sequence (P35372 whole entry, looked up): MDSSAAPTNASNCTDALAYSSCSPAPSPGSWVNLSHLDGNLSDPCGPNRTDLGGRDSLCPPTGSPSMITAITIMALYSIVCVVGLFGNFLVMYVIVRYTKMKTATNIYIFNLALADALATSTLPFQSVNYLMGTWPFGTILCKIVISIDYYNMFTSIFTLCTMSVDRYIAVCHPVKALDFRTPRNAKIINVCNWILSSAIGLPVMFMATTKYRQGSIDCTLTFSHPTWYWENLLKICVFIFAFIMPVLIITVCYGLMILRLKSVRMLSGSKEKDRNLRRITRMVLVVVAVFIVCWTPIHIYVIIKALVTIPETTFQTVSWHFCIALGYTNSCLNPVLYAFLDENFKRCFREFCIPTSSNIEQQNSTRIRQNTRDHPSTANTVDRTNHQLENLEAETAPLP
T1 sequence (P41143 whole entry, looked up): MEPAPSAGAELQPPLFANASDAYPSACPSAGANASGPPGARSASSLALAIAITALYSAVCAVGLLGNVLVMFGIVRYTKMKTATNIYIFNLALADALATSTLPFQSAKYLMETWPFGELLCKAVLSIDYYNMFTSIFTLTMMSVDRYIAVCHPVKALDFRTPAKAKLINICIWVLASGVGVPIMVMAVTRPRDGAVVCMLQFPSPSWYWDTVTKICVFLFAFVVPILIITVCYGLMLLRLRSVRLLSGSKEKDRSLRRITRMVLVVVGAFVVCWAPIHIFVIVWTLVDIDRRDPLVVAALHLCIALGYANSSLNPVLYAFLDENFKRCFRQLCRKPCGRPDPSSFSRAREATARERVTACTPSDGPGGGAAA
T1 sequence (P41145 whole entry, looked up): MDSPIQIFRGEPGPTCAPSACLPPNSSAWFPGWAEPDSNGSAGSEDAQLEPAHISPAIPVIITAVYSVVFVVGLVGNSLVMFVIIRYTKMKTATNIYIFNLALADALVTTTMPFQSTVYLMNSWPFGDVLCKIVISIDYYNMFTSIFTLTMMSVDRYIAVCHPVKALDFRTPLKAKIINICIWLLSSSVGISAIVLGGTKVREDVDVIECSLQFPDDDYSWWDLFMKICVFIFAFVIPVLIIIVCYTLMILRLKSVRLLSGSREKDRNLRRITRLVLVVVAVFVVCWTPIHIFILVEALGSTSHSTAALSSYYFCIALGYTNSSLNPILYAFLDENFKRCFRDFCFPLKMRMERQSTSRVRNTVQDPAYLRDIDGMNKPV

As to `CC(=O)NCC(=O)NCC(=O)NC1CCC2(O)[C@H]3Cc4ccc(O)c5c4C2(CCN3C)C1O5` (stereo partly drawn), in assay [1], the Potency ratio worked out at 1.9. As for `O=C(CCC(=O)NCC(=O)NCC(=O)NC1CCC2(O)[C@H]3Cc4ccc(O)c5c4C2(CCN3CC2CC2)C1O5)NCC(=O)NCC(=O)NC1CCC2(O)[C@H]3Cc4ccc(O)c5c4C2(CCN3CC2CC2)C1O5` (stereo partly drawn), in assay [1], the Potency ratio came out at 7.8. For the same compound, the Relative potency in assay [2] stood at 1.4.

Take `O=C(CCC(=O)NCC(=O)NCC(=O)NC1CCC2(O)[C@H]3Cc4ccc(O)c5c4C2(CCN3CC2CC2)C1O5)NCC(=O)NCC(=O)NC1CCC2(O)[C@@H]3Cc4ccc(O)c5c4C2(CCN3CC2CC2)C1O5` (single isomer, unassigned; (-)): in assay [1], the Potency ratio is 181. Besides, the Relative potency in assay [2] came out at 33.5. Regarding `CN1CCC23c4c5ccc(O)c4OC2C(NC(=O)CNC(=O)CNC(=O)CCC(=O)NCC(=O)NCC(=O)NC2CCC4(O)[C@H]6Cc7ccc(O)c8c7C4(CCN6C)C2O8)CCC3(O)[C@H]1C5` (stereo partly drawn), in assay [1], the Potency ratio is 7.6.

`CC(=O)NCC(=O)NCC(=O)NC1CCC2(O)[C@H]3Cc4ccc(O)c5c4C2(CCN3CC2CC2)C1O5` (stereo partly drawn): the Potency ratio in assay [1] was 5.4. This compound also gave a Relative potency in assay [2] of 1.
